The test system of this assay is nude mice, LX-1 lung xenograft intrarenal, tumor weight T/C. Nature of the assay: NCI In Vivo Anticancer Drug Screen. Data for tumor model Human Lung LX-1 Xenograft (intrarenal inoculation) in NU/NU Swiss (nude) mice. The following applies: endpoint: mean tumor weight change, higher = larger tumour. The method, boiled down:
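Compound-treated mice carrying transplanted tumors were compared with vehicle-treated controls. Tumor size was the measured end point, and the value is the treated-group measurement divided by the control-group measurement (T/C).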
(A xenograft is tissue or cells of one species grown in another, often human tumour cells in immunodeficient mice.)

Setting [1] is: dose: 300.0 mg/kg/injection, schedule: Q04DX003 (sc), vehicle: Klucel (hydroxypropylcellulose) (HPC).
[2] abbreviates: dose: 600.0 mg/kg/injection, schedule: Q04DX003 (sc), vehicle: Klucel (hydroxypropylcellulose) (HPC).
Setting [3] is: dose: 1200.0 mg/kg/injection, schedule: Q04DX003 (sc), vehicle: Klucel (hydroxypropylcellulose) (HPC).
[4] abbreviates: dose: 300.0 mg/kg/injection, schedule: Q04DX003 (sc), vehicle: saline with Tween-80.

T/C data for 22 molecules are collected here from PubChem BioAssay AID264 (DTP/NCI, 2004).

Where “and” joins values, the source holds several entries; their conditions need not be identical. Equal entries are not always repeated. Results filed as inconclusive are left out.

For the molecule `CC(=O)OCC1OC([S-])C(OC(C)=O)C(OC(C)=O)C1OC(C)=O.CC[PH+](CC)CC.CC[PH+](CC)CC.[Au].[Au]` (stereo unspecified), the T/C (dose: 3.12 mg/kg/injection, schedule: Q04DX003 (sc), vehicle: Klucel (hydroxypropylcellulose) (HPC)) was 110 % of control; the T/C (dose: 6.25 mg/kg/injection, schedule: Q04DX003 (sc), vehicle: Klucel (hydroxypropylcellulose) (HPC)) was 88 % of control; the T/C (dose: 12.5 mg/kg/injection, schedule: Q04DX003 (sc), vehicle: Klucel (hydroxypropylcellulose) (HPC)) was 75 % of control.
Regarding `O=C1CN(CN2CCOCC2)C(=O)CN1CN1CCOCC1`, the T/C reads like this: (dose: 50.0 mg/kg/injection, schedule: Q01DX010 (sc), vehicle: suspension in saline) 116 % of control; (dose: 200.0 mg/kg/injection, schedule: Q01DX010 (sc), vehicle: suspension in saline) 156 % of control.
As to `CC(=O)NCCCCCCNC(C)=O`, the T/C was 106 % of control (dose: 200.0 mg/kg/injection, schedule: Q01DX010 (sc), vehicle: saline); 45 % of control (dose: 400.0 mg/kg/injection, schedule: Q01DX010 (sc), vehicle: saline); 105 % of control and 114 % of control (dose: 800.0 mg/kg/injection, schedule: Q01DX010 (sc), vehicle: saline); 96 % of control (dose: 3200.0 mg/kg/injection, schedule: Q01DX010 (sc), vehicle: saline).
On to `O=[N+]([O-])O.[Ga]`, for which the T/C by setting is: (dose: 100.0 mg/kg/injection, schedule: Q04DX003 (sc), vehicle: saline) 92 % of control; (dose: 200.0 mg/kg/injection, schedule: Q04DX003 (sc), vehicle: saline) 86 % of control; (dose: 400.0 mg/kg/injection, schedule: Q04DX003 (sc), vehicle: saline) 86 % of control; (dose: 800.0 mg/kg/injection, schedule: Q04DX003 (sc), vehicle: saline) 83 % of control.
On to `S=C(Nc1ccc(Cl)c(Cl)c1)N1c2ccccc2-n2cccc2C1c1cccnc1` (stereo unspecified), for which the T/C is 58 % of control under setting [1]; 104 % of control under setting [2]; 71 % of control under setting [3]; 65 % of control (dose: 2400.0 mg/kg/injection, schedule: Q04DX003 (sc), vehicle: Klucel (hydroxypropylcellulose) (HPC)).
For `COC(=O)C12OCC34C(CC5C(C)=CC(=O)C(O)C5(C)C3C(O)C1O)OC(=O)C(OC(=O)CC(C)C)C24` (stereo unspecified), the T/C (dose: 3.0 mg/kg/injection, schedule: Q04DX003 (sc), vehicle: saline + alcohol) was 48 % of control.
`CCOC(=O)Nc1cc2c(c(N)n1)N=C(c1ccc(Cl)cc1Cl)CN2`: the T/C was 82 % of control (dose: 37.5 mg/kg/injection, schedule: Q04DX003 (sc), vehicle: saline with Tween-80); 76 % of control (dose: 75.0 mg/kg/injection, schedule: Q04DX003 (sc), vehicle: saline with Tween-80); 64 % of control (dose: 150.0 mg/kg/injection, schedule: Q04DX003 (sc), vehicle: saline with Tween-80); 66 % of control under setting [4].
For `C[PH+](C)C.C[PH+](C)C.[Au]`, the T/C was 111 % of control (dose: 5.0 mg/kg/injection, schedule: Q04DX003 (sc), vehicle: suspension in saline); 118 % of control (dose: 10.0 mg/kg/injection, schedule: Q04DX003 (sc), vehicle: suspension in saline); 76 % of control (dose: 20.0 mg/kg/injection, schedule: Q04DX003 (sc), vehicle: suspension in saline).
Consider `OCCOCC(F)(F)F`, for which the T/C runs as follows: (dose: 300.0 mg/kg/injection, schedule: Q04DX003 (sc), vehicle: saline) 78 % of control; (dose: 600.0 mg/kg/injection, schedule: Q04DX003 (sc), vehicle: saline) 95 % of control.
Regarding `N=C(N)Sc1ccccn1`, the T/C (dose: 1.25 mg/kg/injection, schedule: Q01DX010 (sc), vehicle: saline) is 83 % of control; the T/C (dose: 2.5 mg/kg/injection, schedule: Q01DX010 (sc), vehicle: saline) is 72 % of control; the T/C (dose: 5.0 mg/kg/injection, schedule: Q01DX010 (sc), vehicle: saline) was 52 % of control; the T/C (dose: 10.0 mg/kg/injection, schedule: Q01DX010 (sc), vehicle: saline) is 29 % of control; the T/C (dose: 25.0 mg/kg/injection, schedule: Q01DX010 (sc), vehicle: saline) is 158 % of control; the T/C (dose: 50.0 mg/kg/injection, schedule: Q01DX010 (sc), vehicle: saline) was 167 % of control.
`N#C[C@H](OC1OC(COC2OC(CO)C(O)C(O)C2O)C(O)C(O)C1O)c1ccccc1` (stereo partly specified): the T/C is 82 % of control (dose: 900.0 mg/kg/injection, schedule: Q04DX003 (sc), vehicle: suspension in saline) and 123 % of control (dose: 1800.0 mg/kg/injection, schedule: Q04DX003 (sc), vehicle: suspension in saline).
Regarding `Cn1/c2cc/c1=C(\c1ccc(S(=O)(=O)O)cc1)c1ccc([n-]1)/C(c1ccc(S(=O)(=O)O)cc1)=c1/cc/c([nH]1)=C(\c1ccc(S(=O)(=O)O)cc1)c1ccc([n-]1)/C=2c1ccc(S(=O)(=O)O)cc1.O.O=S(=O)(O)C(F)(F)F.[Cu+2]`, the T/C (dose: 200.0 mg/kg/injection, schedule: Q04DX003 (sc), vehicle: suspension in saline) was 100 % of control; the T/C (dose: 400.0 mg/kg/injection, schedule: Q04DX003 (sc), vehicle: suspension in saline) was 109 % of control; the T/C (dose: 800.0 mg/kg/injection, schedule: Q04DX003 (sc), vehicle: suspension in saline) is 94 % of control.
In the case of `[Cl][Pt+2][Cl].[NH-]CC1(C[NH-])CCC1`, the T/C (dose: 50.0 mg/kg/injection, schedule: Q04DX003 (sc), vehicle: suspension in saline) is 121 % of control.
Consider `C=C(C)C(=O)OC1C/C(CO)=C\C(O)C/C(C)=C/C2OC(=O)C(=C)C21` (stereo unspecified), for which the T/C is 96 % of control (dose: 20.0 mg/kg/injection, schedule: Q04DX003 (sc), vehicle: saline + alcohol); 119 % of control (dose: 40.0 mg/kg/injection, schedule: Q04DX003 (sc), vehicle: saline + alcohol); 104 % of control (dose: 80.0 mg/kg/injection, schedule: Q04DX003 (sc), vehicle: saline + alcohol); 107 % of control (dose: 160.0 mg/kg/injection, schedule: Q04DX003 (sc), vehicle: saline + alcohol).
Take `CC(C)=CC(=O)OC1C2C(C)=CC(=O)C(O)C2(C)C2C3(O)OCC24C(CC(=O)OC14)C(C)C3O` (stereo unspecified): the T/C by setting is: (dose: 1.25 mg/kg/injection, schedule: Q04DX003 (sc), vehicle: distilled water + Tween-80) 92 % of control; (dose: 2.5 mg/kg/injection, schedule: Q04DX003 (sc), vehicle: distilled water + Tween-80) 90 % of control.
In the case of `Cn1cnc([N+](=O)[O-])c1[Se]c1nc(N)nc2nc[nH]c12`, the T/C (dose: 12.5 mg/kg/injection, schedule: Q01DX010 (sc), vehicle: water) is 63 % of control; the T/C (dose: 25.0 mg/kg/injection, schedule: Q01DX010 (sc), vehicle: water) is 68 % of control; the T/C (dose: 50.0 mg/kg/injection, schedule: Q01DX010 (sc), vehicle: water) is 176 % of control; the T/C (dose: 100.0 mg/kg/injection, schedule: Q01DX010 (sc), vehicle: water) is 68 % of control.
Turning to `CCN(CC)CCOC(=O)Cc1cccc2c(=O)cc(-c3ccccc3)oc12`, the T/C by setting is: (dose: 100.0 mg/kg/injection, schedule: Q04DX003 (sc), vehicle: saline with Tween-80) 112 % of control; (dose: 200.0 mg/kg/injection, schedule: Q04DX003 (sc), vehicle: saline with Tween-80) 44 % of control.
Regarding `O=C(O)C1(C(=O)O)CCC1.[NH2-].[NH2-].[Pt+2]`, the T/C was 73 % of control (dose: 6.25 mg/kg/injection, schedule: Q01DX010 (sc), vehicle: dextrose); 88 % of control (dose: 12.5 mg/kg/injection, schedule: Q01DX010 (sc), vehicle: dextrose); 68 % of control (dose: 25.0 mg/kg/injection, schedule: Q01DX010 (sc), vehicle: dextrose).
As to `O=[N+]([O-])c1ccc(Sc2ccncn2)c([N+](=O)[O-])c1`, the T/C is, setting by setting: under setting [4], 104 % of control; (dose: 600.0 mg/kg/injection, schedule: Q04DX003 (sc), vehicle: saline with Tween-80) 105 % of control; (dose: 1200.0 mg/kg/injection, schedule: Q04DX003 (sc), vehicle: saline with Tween-80) 98 % of control.
For the molecule `Cn1cc(C2NC(=O)c3ccccc3N2)c2ccccc21` (stereo unspecified), the T/C reads like this: under setting [1], 31 % of control; under setting [2], 32 % of control; under setting [3], -36 % of control.
As to `Clc1ccc(C2SC=Cc3ccccc32)cc1` (stereo unspecified), the T/C under setting [1] was 64 % of control, the T/C under setting [2] is 47 % of control and the T/C under setting [3] is 106 % of control.
Turning to `CNNCc1ccc(C(=O)NC(C)C)cc1`, the T/C (dose: 166.66 mg/kg/injection, schedule: Q04DX003 (ip), vehicle: saline) was -73 % of control; the T/C (dose: 333.33 mg/kg/injection, schedule: Q04DX003 (ip), vehicle: saline) is -64 % of control; the T/C (dose: 666.65 mg/kg/injection, schedule: Q04DX003 (ip), vehicle: saline) was -73 % of control.
